How the values were obtained:
EGFP-HRas = molecular target: T1, EGFP-HRas (Homo sapiens, UniProt P01112); assay: Live-cell imaging of EGFP-HRas localization in HeLa cells; type: cell-based
T1 construct: host or cells: HeLa
Method: Imaging was performed on an Axio Observer Z1 inverted microscope (Carl Zeiss Microscopy Gmb, Germany) with Yokogawa CSU-X1 spinning disk confocal unit using a 63×, 1.4 NA oil immersion or 20×, 0.8 NA objective to an ORCA-Flash4.0 V2 Digital CMOS camera (Hamamatsu, Japan). For live cell imaging, an incubation chamber with temperature and CO2 controllers (World Precision Instruments) was utilized. Fluorophores were excited with s diode laser (488 nm; 30 mW). Images were acquired using Zen Blue software (Carl Zeiss) and processed using Image J.^1
HeLa cells were plated at 40,000 cells/well in an 8-well Lab-Tek chamber slide (ThermoFisher) and allowed to adhere overnight. Cells were transfected with mEGFP-HRas or mEGFP-KRas4b using Lipofectamine 2000 (ThermoFisher) according to the manufacturer's protocol. 50 mM stocks of compounds 1 and 2 were prepared by dissolving the solid compound in DMSO containing 100 mM tris(2-S 3 carboxyethyl)phosphine hydrochloride (TCEP) as a preservative. From these stocks, a solution of 200 μM [1 or 2] (with 400 μM TCEP), or 400 μM TCEP was prepared in OptiMEM media. Before imaging, cells were exchanged into OptiMEM media. The diluted solutions were added to the indicated final concentration within individual wells of the chamber slide and cells imaged while maintaining 37° C., 5% CO2 in the incubation chamber. Images were acquired in 6 different locations across a minimum of 2 independent experiments. […] An unpaired t test was performed to determine the significance of the means before and after treatment.

ERK1/2 (pY204/pY187) = assay: Detection of ERK1/2 phosphorylation in T24 cells (western blot); type: cell-based, human; conditions: T24 cells (oncogenic HRas mutation), 1.25 μmol/10^7 cells, 1 h
Method: T24 cells were grown to confluency in 6 cm plates. Stock solutions of compounds were prepared in DMSO as before and diluted to the final indicated concentration in 2 mL of OptiMEM media before adding to cells. Cells were incubated at 37° C. for 1 h and then media removed and 1.5 mL of HBSS added to each plate. Cells were detached using a cell scraper, pelleted by centrifugation at 1,000 rcf for 5 min and the pellet processed using MPER™ Mammalian Protein Extraction Reagent (ThermoFisher) with the addition of Halt Protease Inhibitor Cocktail (ThermoFisher) and 1 mM sodium orthovanadate. Samples were resolved by electrophoresis using 4-20% SDS-polyacrylamide gels (Bio-Rad) under denaturing and reducing conditions. Proteins were then electrotransferred to a PVDF membrane (Bio-Rad). The membrane was blocked with 3% BSA and then subjected to immunoblot analysis using AKT/MAPK Signaling Pathway Antibody Cocktail (ab151279) (Abcam) and secondary goat anti-rabbit IgG-HRP (sc-2030) (Santa Cruz Biotechnology). Chemiluminescent detection was performed by using SuperSignal West Pico PLUS chemiluminescent substrate (ThermoFisher) according to the manufacturer's instructions.
Assays were performed in 3 biological replicates. Western blots were analyzed using ImageJl. The intensity of the protein band in each condition was normalized to the intensity of the corresponding loading control (Rab11). […]

GAP43 = molecular target: T2, GAP43 (Homo sapiens, UniProt P17677); assay: Acyl resin-assisted capture detection of GAP43 palmitoylation in INCL lymphoblasts; type: cell-based; conditions: 0.05 μmol/10^7 cells, 24 h
T2 construct: Western blot detection of endogenous GAP43 in acyl resin-assisted capture fractions; host or cells: INCL human lymphoblasts
T2 sequence (P17677 1-238): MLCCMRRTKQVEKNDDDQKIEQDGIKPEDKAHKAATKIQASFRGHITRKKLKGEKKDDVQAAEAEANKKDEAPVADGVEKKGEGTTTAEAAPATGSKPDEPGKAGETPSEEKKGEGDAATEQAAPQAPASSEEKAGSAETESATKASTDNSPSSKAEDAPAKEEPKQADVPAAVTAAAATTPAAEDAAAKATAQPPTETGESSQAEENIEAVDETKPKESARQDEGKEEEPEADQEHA
Method: INCL Lymphoblasts were adjusted to 1,000,000 cells/mL in 20 mL of OptiMem Media. Stock solutions of compounds were prepared in DMSO as before and diluted to the indicated final concentration in the cell suspension. […] Cells were pelleted by centrifugation at 1,000 rcf for 5 min and the pellet processed using a CAPTUREome S-Palmitoylated Protein Kit (Badrilla, UK) according to the manufacturer's protocol. Samples were resolved by electrophoresis using 4-20% SDS-polyacrylamide gels (Bio-Rad) under denaturing and reducing conditions. Proteins were then electrotransferred to a PVDF membrane (Bio-Rad). The membrane was blocked with 3% BSA and then subjected to immunoblot analysis using GAP-43 (B-5) Antibody (sc-17790) (Santa Cruz Biotechnology) and secondary antibody goat anti-mouse IgG HRP (ThermoFisher). Chemiluminescent detection was performed by using SuperSignal West Pico PLUS chemiluminescent substrate (ThermoFisher) according to the manufacturer's instructions.
Assays were performed in 3 biological replicates. Each replicate involved the analysis of 4 to 5 conditions side-by-side. Western blots were analyzed using ImageJ^1. The intensity of the protein band in each cleaved bound fraction (palmitoylated protein fraction) was normalized to the intensity of the corresponding input fraction (total protein fraction). The values within individual S 4 replicates were normalized to the control or vehicle condition and reported as means±SD. An unpaired t test was performed to determine the significance between means.

T1 sequence (P01112 1-186 limits assumed): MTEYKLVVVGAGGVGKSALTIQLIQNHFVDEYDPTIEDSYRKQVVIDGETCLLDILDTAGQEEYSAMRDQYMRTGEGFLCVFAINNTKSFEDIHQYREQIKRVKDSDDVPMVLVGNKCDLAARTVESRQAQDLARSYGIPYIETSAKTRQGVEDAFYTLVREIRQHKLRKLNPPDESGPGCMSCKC

Which results are given for `CCCCCCCCNC(=O)[C@@H](N)CS` [compound 1, H2N-L-Cys-Oct]?
change in plasma membrane protein localization, statistical analysis of several hundred cells (EGFP-HRas; EGFP-HRas transfected HeLa cells, before vs after treatment): significant change in plasma membrane protein localization; EGFP-HRas localization at the plasma membrane (fluorescence) (EGFP-HRas; HeLa cells, 1.25 μmol/10^7 cells, 20 min): EGFP-HRas localization at the plasma membrane decreased; ERK1/2 phosphorylation (ERK1/2 (pY204/pY187)): near complete abrogation; level of GAP43 palmitoylation (GAP43): significantly reduced

Reference: US20210023065A1, “AMPHIPHILIC THIOL COMPOUNDS AND USES THEREOF” (THE REGENTS OF THE UNIVERSITY OF CALIFORNIA, priority 2018, published 2021)
